Laboratory results: US8163702B2, “Treatment of melanoma” (SciClone Pharmaceuticals, Inc., priority 2006, dated 2012)

Test system: murine B16 melanoma
Assay: Antitumor effect in murine B16 melanoma model, tumor size and tumor weight (Example 2)
Assay type: in vivo, C57BL/6 mice
Method: As per aseptic tissue culture procedures, one vial of B16 melanoma cells (supplied by Cell Culture Center of CAMS) was thawed and centrifuged at 1000 rpm, 20-25° C. for 5 minutes. The cell pellets were suspended in 0.1-0.5 mL normal saline (NS) and subcutaneously injected into the right axilla of each mouse (approximately 1×10^6 cells/mouse). When the tumor diameter was 1 cm approximately (measured by vernier caliper), the animals were euthanized with CO2 asphyxiation and the tumor was excised. Tumor cells were suspended in normal saline as previously described and the cell adaptation cycle was repeated once.
On Day 0, 1×10^6 B16 cells in a volume of 0.1 mL normal saline were subcutaneously injected into the right axillary area of the mouse. The day of tumor inoculation was defined as Day 0.
Dosing was initiated on Day 1.
Observations were recorded daily for mortality and moribundity. […] The tumors were excised, separated, and weighed.
Tumor volume was calculated using the following formula: Tumor Volume=Length×Width×Width/2 Tumor volume inhibition rate (IR) was calculated according to the formula: IR(TV)=(TVvehicle−TVdrug treated)/TVvehicle×100% TV is the tumor volume on the day of measurement.
The antitumor effect of the test article was also evaluated by tumor weight. The tumor weight of each mouse was recorded after euthanasia, and the inhibition rate of tumor weight was calculated according to the formula: IR(TW)=(Tumor weightvehicle−Tumor weightdrug treated)/Tumor weightvehicle×100%

[1] = Day 9, SCV-07 0.01 mg/kg/day sc
[2] = Day 9, mouse F1, SCV-07 0.1 mg/kg sc
[3] = Day 9, mouse F1, SCV-07 5.0 mg/kg sc
[4] = Day 9, mouse F2, SCV-07 0.01 mg/kg sc
[5] = Day 9, mouse F2, SCV-07 0.1 mg/kg sc
[6] = Day 9, mouse F2, SCV-07 1.0 mg/kg sc
[7] = Day 9, mouse F2, SCV-07 5.0 mg/kg sc
[8] = Day 9, mouse F3, SCV-07 0.1 mg/kg sc
[9] = Day 9, mouse F3, SCV-07 1.0 mg/kg sc
[10] = Day 9, mouse F4, SCV-07 0.01 mg/kg sc
[11] = Day 9, mouse F4, SCV-07 0.1 mg/kg sc
[12] = Day 9, mouse F4, SCV-07 1.0 mg/kg sc
[13] = Day 9, mouse F4, SCV-07 5.0 mg/kg sc
[14] = Day 9, mouse F5, SCV-07 0.01 mg/kg sc
[15] = Day 9, mouse F5, SCV-07 0.1 mg/kg sc
[16] = Day 9, mouse F5, SCV-07 1.0 mg/kg sc
[17] = Day 9, mouse F5, SCV-07 5.0 mg/kg sc
[18] = Day 9, mouse M1, SCV-07 0.01 mg/kg sc
[19] = Day 9, mouse M1, SCV-07 0.1 mg/kg sc
[20] = Day 9, mouse M1, SCV-07 1.0 mg/kg sc
[21] = Day 9, mouse M1, SCV-07 5.0 mg/kg sc
[22] = Day 9, mouse M2, SCV-07 0.01 mg/kg sc
[23] = Day 9, mouse M2, SCV-07 1.0 mg/kg sc
[24] = Day 9, mouse M3, SCV-07 0.01 mg/kg sc
[25] = Day 9, mouse M3, SCV-07 1.0 mg/kg sc
[26] = Day 9, mouse M3, SCV-07 5.0 mg/kg sc
[27] = Day 9, mouse M4, SCV-07 0.1 mg/kg sc
[28] = Day 9, mouse M4, SCV-07 1.0 mg/kg sc
[29] = Day 9, mouse M4, SCV-07 5.0 mg/kg sc
[30] = Day 9, mouse M5, SCV-07 0.01 mg/kg sc
[31] = Day 9, mouse M5, SCV-07 0.1 mg/kg sc
[32] = Day 12, SCV-07 0.01 mg/kg/day sc
[33] = Day 12, SCV-07 0.1 mg/kg/day sc
[34] = Day 12, SCV-07 1.0 mg/kg/day sc
[35] = Day 12, SCV-07 5.0 mg/kg/day sc
[36] = Day 12, mouse F1, SCV-07 0.01 mg/kg sc
[37] = Day 12, mouse F1, SCV-07 0.1 mg/kg sc
[38] = Day 12, mouse F1, SCV-07 1.0 mg/kg sc
[39] = Day 12, mouse F1, SCV-07 5.0 mg/kg sc
[40] = Day 12, mouse F2, SCV-07 0.01 mg/kg sc
[41] = Day 12, mouse F2, SCV-07 0.1 mg/kg sc
[42] = Day 12, mouse F2, SCV-07 1.0 mg/kg sc

Structure (SMILES): N[C@H](CCC(=O)N[C@@H](Cc1c[nH]c2ccccc12)C(=O)O)C(=O)O [SCV-07, γ-D-glutamyl-L-tryptophan]
- Tumor Volume (Mean ± SD) (Day 3, SCV-07 0.01 mg/kg/day sc, not measurable defined as 0): 0 cm^3
- Tumor Volume (Mean ± SD) (Day 3, SCV-07 0.1 mg/kg/day sc, not measurable defined as 0): 0 cm^3
- Tumor Volume (Mean ± SD) (Day 3, SCV-07 1.0 mg/kg/day sc, not measurable defined as 0): 0 cm^3
- Tumor Volume (Mean ± SD) (Day 3, SCV-07 5.0 mg/kg/day sc, not measurable defined as 0): 0 cm^3
- Tumor Volume (Mean ± SD) (Day 6, SCV-07 0.01 mg/kg/day sc, not measurable defined as 0): 0 cm^3
- Tumor Volume (Mean ± SD) (Day 6, SCV-07 0.1 mg/kg/day sc, not measurable defined as 0): 0 cm^3
- Tumor Volume (Mean ± SD) (Day 6, SCV-07 1.0 mg/kg/day sc, not measurable defined as 0): 0 cm^3
- Tumor Volume (Mean ± SD) (Day 6, SCV-07 5.0 mg/kg/day sc, not measurable defined as 0): 0 cm^3
- IR (tumor volume inhibition rate) [1]: −4.3%
- Tumor Volume (Mean ± SD) [1]: 0.045 ± 0.042 cm^3
- IR (tumor volume inhibition rate) (Day 9, SCV-07 0.1 mg/kg/day sc): 11.5%
- Tumor Volume (Mean ± SD) (Day 9, SCV-07 0.1 mg/kg/day sc): 0.039 ± 0.038 cm^3
- IR (tumor volume inhibition rate) (Day 9, SCV-07 1.0 mg/kg/day sc): 19.7%
- Tumor Volume (Mean ± SD) (Day 9, SCV-07 1.0 mg/kg/day sc): 0.035 ± 0.036 cm^3
- IR (tumor volume inhibition rate) (Day 9, SCV-07 5.0 mg/kg/day sc): −11.0%
- Tumor Volume (Mean ± SD) (Day 9, SCV-07 5.0 mg/kg/day sc): 0.048 ± 0.036 cm^3
- Tumor measurements L [2]: 0.5 cm
- Tumor measurements W [2]: 0.5 cm
- Tumor volumes [2]: 0.06 cm^3
- Tumor measurements L [3]: 0.5 cm
- Tumor measurements W [3]: 0.5 cm
- Tumor volumes [3]: 0.06 cm^3
- Tumor measurements L [4]: 0.5 cm
- Tumor measurements W [4]: 0.5 cm
- Tumor volumes [4]: 0.06 cm^3
- Tumor measurements L [5]: 0.5 cm
- Tumor measurements W [5]: 0.5 cm
- Tumor volumes [5]: 0.06 cm^3
- Tumor measurements L [6]: 0.5 cm
- Tumor measurements W [6]: 0.5 cm
- Tumor volumes [6]: 0.06 cm^3
- Tumor measurements L [7]: 0.5 cm
- Tumor measurements W [7]: 0.5 cm
- Tumor volumes [7]: 0.06 cm^3
- Tumor measurements L [8]: 0.5 cm
- Tumor measurements W [8]: 0.5 cm
- Tumor volumes [8]: 0.06 cm^3
- Tumor measurements L [9]: 0.6 cm
- Tumor measurements W [9]: 0.6 cm
- Tumor volumes [9]: 0.11 cm^3
- Tumor measurements L [10]: 0.5 cm
- Tumor measurements W [10]: 0.5 cm
- Tumor volumes [10]: 0.06 cm^3
- Tumor measurements L [11]: 0.6 cm
- Tumor measurements W [11]: 0.6 cm
- Tumor volumes [11]: 0.11 cm^3
- Tumor measurements L [12]: 0.3 cm
- Tumor measurements W [12]: 0.3 cm
- Tumor volumes [12]: 0.01 cm^3
- Tumor measurements L [13]: 0.6 cm
- Tumor measurements W [13]: 0.6 cm
- Tumor volumes [13]: 0.11 cm^3
- Tumor measurements L [14]: 0.6 cm
- Tumor measurements W [14]: 0.6 cm
- Tumor volumes [14]: 0.11 cm^3
- Tumor measurements L [15]: 0 cm
- Tumor measurements W [15]: 0 cm
- Tumor volumes [15]: 0.00 cm^3
- Tumor measurements L [16]: 0.5 cm
- Tumor measurements W [16]: 0.5 cm
- Tumor volumes [16]: 0.06 cm^3
- Tumor measurements L [17]: 0.5 cm
- Tumor measurements W [17]: 0.5 cm
- Tumor volumes [17]: 0.06 cm^3
- Tumor measurements L [18]: 0.6 cm
- Tumor measurements W [18]: 0.6 cm
- Tumor volumes [18]: 0.11 cm^3
- Tumor measurements L [19]: 0.3 cm
- Tumor measurements W [19]: 0.3 cm
- Tumor volumes [19]: 0.01 cm^3
- Tumor measurements L [20]: 0.3 cm
- Tumor measurements W [20]: 0.3 cm
- Tumor volumes [20]: 0.01 cm^3
- Tumor measurements L [21]: 0.5 cm
- Tumor measurements W [21]: 0.5 cm
- Tumor volumes [21]: 0.06 cm^3
- Tumor measurements L [22]: 0.4 cm
- Tumor measurements W [22]: 0.4 cm
- Tumor volumes [22]: 0.03 cm^3
- Tumor volumes (Day 9, mouse M2, SCV-07 0.1 mg/kg sc): 0.00 cm^3
- Tumor measurements L [23]: 0.5 cm
- Tumor measurements W [23]: 0.5 cm
- Tumor volumes [23]: 0.06 cm^3
- Tumor measurements L [24]: 0.4 cm
- Tumor measurements W [24]: 0.3 cm
- Tumor volumes [24]: 0.02 cm^3
- Tumor volumes (Day 9, mouse M3, SCV-07 0.1 mg/kg sc): 0.00 cm^3
- Tumor measurements L [25]: 0.3 cm
- Tumor measurements W [25]: 0.3 cm
- Tumor volumes [25]: 0.01 cm^3
- Tumor measurements L [26]: 0.5 cm
- Tumor measurements W [26]: 0.5 cm
- Tumor volumes [26]: 0.06 cm^3
- Tumor measurements L [27]: 0.3 cm
- Tumor measurements W [27]: 0.3 cm
- Tumor volumes [27]: 0.01 cm^3
- Tumor measurements L [28]: 0.3 cm
- Tumor measurements W [28]: 0.3 cm
- Tumor volumes [28]: 0.01 cm^3
- Tumor measurements L [29]: 0.5 cm
- Tumor measurements W [29]: 0.5 cm
- Tumor volumes [29]: 0.06 cm^3
- Tumor measurements L [30]: 0.5 cm
- Tumor measurements W [30]: 0.5 cm
- Tumor volumes [30]: 0.06 cm^3
- Tumor measurements L [31]: 0.5 cm
- Tumor measurements W [31]: 0.5 cm
- Tumor volumes [31]: 0.06 cm^3
- IR (tumor volume inhibition rate) [32]: 51.2%
- Tumor Volume (Mean ± SD) [32]: 0.368 ± 0.223 cm^3
- IR (tumor volume inhibition rate) [33]: 37.7%
- Tumor Volume (Mean ± SD) [33]: 0.469 ± 0.199 cm^3
- IR (tumor volume inhibition rate) [34]: 61.3%
- Tumor Volume (Mean ± SD) [34]: 0.292 ± 0.169 cm^3
- IR (tumor volume inhibition rate) [35]: 54.9%
- Tumor Volume (Mean ± SD) [35]: 0.340 ± 0.195 cm^3
- Tumor measurements L [36]: 0.1 cm
- Tumor measurements W [36]: 0.1 cm
- Tumor volumes [36]: 5E−04 cm^3
- Tumor measurements L [37]: 1.0 cm
- Tumor measurements W [37]: 1.0 cm
- Tumor volumes [37]: 0.50 cm^3
- Tumor measurements L [38]: 1.0 cm
- Tumor measurements W [38]: 0.7 cm
- Tumor volumes [38]: 0.25 cm^3
- Tumor measurements L [39]: 1.0 cm
- Tumor measurements W [39]: 0.9 cm
- Tumor volumes [39]: 0.41 cm^3
- Tumor measurements L [40]: 1.0 cm
- Tumor measurements W [40]: 0.7 cm
- Tumor volumes [40]: 0.25 cm^3
- Tumor measurements L [41]: 1.0 cm
- Tumor measurements W [41]: 1.0 cm
- Tumor volumes [41]: 0.50 cm^3
- Tumor measurements L [42]: 0.9 cm
- Tumor measurements W [42]: 0.9 cm
- Tumor volumes [42]: 0.36 cm^3
